{"source": "patent US20230357440A1", "about": "“BISPECIFIC ANTIBODY AGAINST CD3 AND CD20 IN COMBINATION THERAPY FOR TREATING FOLLICULAR LYMPHOMA” (GENMAB A/S, priority 2020, published 2023)", "key": {"[1]": {"test_system": "Human Burkitt lymphoma Raji cells", "format": "cell-based", "conditions": "no epcoritamab, bendamustine 0-20 μM, 48 hours", "protocol": "(§1) Bendamustine, an alkylating agent that causes intra- and inter-strand crosslinks between DNA bases, is approved for treatment of CLL and indolent B-NHL. This experiment was performed to determine whether bendamustine impacts the anti-tumor activity of epcoritamab by using in vitro T-cell activation and cytotoxicity assays.\n(§2) Briefly, Human Burkitt lymphoma (Raji [ATCC, cat. no. CCL-86]) and DLBCL (SU-DHL-4 [Deutsche Sammlung von Mikroorganismen und Zellkulturen—DSMZ, cat. no. ACC-495]) cell lines were used as target cells. Cells were cultured in culture medium (RPMI 1640 with HEPES and L-Glutamine supplemented with 10% heat-inactivated donor bovine serum with iron, and 1% [v/v] penicillin/streptomycin) to which 2 mM L-glutamine, and 1 mM sodium pyruvate were added, at 37° C., 5% CO2. […] Isolated cells were washed twice in phosphate buffered saline (PBS) and counted using acridine orange/propidium iodide (AO/PI) viability staining solution (Nexcelom Bioscience) on a Cellometer® Auto 2000 Cell Viability Counter. […] B-cell viability and T-cell activation were measured by flow cytometry (count of CD22-positive cells; expression of the activation markers CD69, CD25, and CD107 [LAMP-1] on CD4+ and CD8+ T cells). The percentage cytotoxicity was calculated as follows: […]"}, "DLBCL SU-DHL-4 cells": {"test_system": "DLBCL SU-DHL-4 cells", "format": "cell-based, human", "conditions": "no epcoritamab, bendamustine 0-20 μM, 48 hours", "protocol": "as §1, §2"}, "[2]": {"test_system": "double-refractory follicular lymphoma", "conditions": "Salles et al., Haematologica 2017; cited from earlier work"}, "[3]": {"test_system": "CD20-expressing Raji-luc tumor cells", "conditions": "even in the presence of an excess of rituximab variant with inert Fc domain (IgG1-RTX-FEAR); cited from earlier work"}, "[4]": {"test_system": "relapsed/refractory (R/R) B-NHL", "test": "epcoritamab monotherapy clinical trial in R/R B-NHL (NCT03625037)", "format": "in vivo, human", "conditions": "R/R B-NHL patients, preliminary data", "from_the_text": "Epcoritamab as monotherapy is currently in a clinical trial for the treatment of relapsed/refractory (R/R) B-NHL (ClinicalTrials.gov Identifier: NCT03625037)."}, "[5]": {"test_system": "T cells isolated from human healthy donor buffy coats", "test": "in vitro T-cell activation assay (flow cytometry; CD69, CD25, CD107/LAMP-1)", "format": "cell-based", "protocol": "as §1\nBriefly, Human Burkitt lymphoma (Raji [ATCC, cat. no. CCL-86]) and DLBCL (SU-DHL-4 [Deutsche Sammlung von Mikroorganismen und Zellkulturen—DSMZ, cat. no. ACC-495]) cell lines were used as target cells. Cells were cultured in culture medium (RPMI 1640 with HEPES and L-Glutamine supplemented with 10% heat-inactivated donor bovine serum with iron, and 1% [v/v] penicillin/streptomycin) to which 2 mM L-glutamine, and 1 mM sodium pyruvate were added, at 37° C., 5% CO2. T cells, which were isolated from human healthy donor buffy coats by negative selection using the RosetteSep™ Human T Cell Enrichment Cocktail (Stemcell Technologies) followed by density centrifugation over a Ficoll gradient, both according to the manufacturer's instructions, were used as effector cells. Isolated cells were washed twice in phosphate buffered saline (PBS) and counted using acridine orange/propidium iodide (AO/PI) viability staining solution (Nexcelom Bioscience) on a Cellometer® Auto 2000 Cell Viability Counter. T cells (100,000 cells/well) were incubated with Raji or SU-DHL-4 cells (50,000 cells/well) in culture medium in the presence of epcoritamab (0.033 pg/mL-333 ng/mL) and bendamustine (0-20 μM) at 37° C., 5% CO2 for 48 hours. B-cell viability and T-cell activation were measured by flow cytometry (count of CD22-positive cells; expression of the activation markers CD69, CD25, and CD107 [LAMP-1] on CD4+ and CD8+ T cells). The percentage cytotoxicity was calculated as follows: […]"}, "[6]": {"test_system": "previously untreated follicular lymphoma", "test": "Phase 1b study of epcoritamab in combination with rituximab and bendamustine (BR)", "format": "in vivo", "protocol": "The Part 1 dose escalation assesses the initial safety, tolerability, and clinical activity of epcoritamab in combination with BR. Epcoritamab is initially be administered in combination with BR in a 3-subject cohort. DLTs are evaluated during the first 28 days. Depending on the number of DLTs observed in the initial 3 subjects, administration of epcoritamab (full dose: 48 mg or 24 mg) in combination with BR is performed in an additional 3 patients as shown in FIG. 3.\nIn Part 2, epcoritamab is administered (with the dosing regimen determined in the dose escalation part) in combination with BR. The expansion will include 20 subjects in order to evaluate the preliminary clinical activity of the combination, in addition to safety, tolerability, PK, pharmacodynamic, and immunogenicity data.\nA step-up dosing method is used for epcoritamab to mitigate the potential for CRS: priming dose (0.16 mg) on cycle 1 day 1, followed by intermediate dose (0.8 mg) on cycle 1 day 8, full dose (24 mg or 48 mg) on cycle 1 day 15 and day 22, and full dose in subsequent cycles. […] Bendamustine (90 mg/m^2) is administered intravenously daily on days 1 and 2 of cycles 1-6. If bendamustine is started later than day 1 of a cycle, then planned day 1 of the next cycle is calculated from the day when bendamustine was actually initiated in order to maintain the regular cycle interval of 28 days. […]\nSafety is assessed by measuring adverse events, laboratory test results, ECGs, vital sign measurements, physical examination findings, and ECOG performance status. Also assessed are immune effector cell-associated neurotoxicity syndrome (e.g., as described by Lee et al., Biol BloodMarrow Transplant 2019; 25:625-638), constitutional symptoms (B symptoms), tumor flare reaction, and survival."}, "[7]": {"test_system": "primary DLBCL and follicular lymphoma patient biopsies", "conditions": "cited from earlier work"}}, "data": [{"molecule": "Cn1c(CCCC(=O)O)nc2cc(N(CCCl)CCCl)ccc21", "note": "[bendamustine, 4-[5-[Bis(2-chloroethyl)amino]-1-methyl-iH-benzo[d]imidazole-2-yl]butanoic acid]", "values": [{"measurement": "number of viable B cells, bendamustine alone", "setting": "[1]", "result": "decreased the number of viable B cells in a dose dependent manner"}, {"measurement": "number of viable B cells, bendamustine alone", "setting": "DLBCL SU-DHL-4 cells", "result": "decreased the number of viable B cells in a dose dependent manner"}]}, {"molecule": "CC[C@H](Nc1ncnc2[nH]cnc12)c1nc2cccc(F)c2c(=O)n1-c1ccccc1", "note": "[idelalisib]", "values": [{"measurement": "1-year PFS", "setting": "[2]", "result": 43, "unit": "%"}, {"measurement": "toxicities", "setting": "[2]", "result": "several toxicities leading to treatment discontinuation"}]}, {"molecule": "epcoritamab: IgG1 bispecific CD3×CD20 antibody, heavy/light chains SEQ ID NOs: 24, 25 and 26, 27; CAS 2134641-34-0", "values": [{"measurement": "tumor growth in the xenograft model", "setting": "[3]", "result": "effectively reduce tumor growth"}, {"measurement": "dose-limiting toxicities", "setting": "[4]", "result": "no dose-limiting toxicities reported"}, {"measurement": "tolerated dose", "setting": "[4]; up to at least 48 mg, including 60 mg", "result": "at least 48 mg"}, {"measurement": "epcoritamab-induced T-cell activation in the presence of bendamustine", "setting": "[5]; bendamustine 0-20 μM, Raji or SU-DHL-4 cells, 48 hours", "result": "not affected by the presence of bendamustine at all concentrations tested"}, {"measurement": "upregulation of T-cell activation markers on CD4+ T cells in the presence of bendamustine", "setting": "[5]; bendamustine 0-20 μM, data not shown", "result": "not affected by bendamustine"}, {"measurement": "activation of CD8+ T cells (upregulation of CD69, CD25 and LAMP-1)", "setting": "[5]; in presence of Raji or SU-DHL-4 cells, epcoritamab 0.033 pg/mL-333 ng/mL, 48 hours", "result": "concentration-dependent activation of CD8+ T cells"}, {"measurement": "responders in expansion phase", "setting": "[6]; 48 mg expansion, as of Sep. 8, 2021, preliminary, non-validated data", "result": 1}, {"measurement": "responders in dose escalation phase", "setting": "[6]; as of Sep. 8, 2021, 17 patients dosed in total, preliminary, non-validated data", "result": 5}, {"measurement": "grade of all CRS events", "setting": "[6]; preliminary data", "result": "Grade ½"}, {"measurement": "most common related AEs", "setting": "[6]; preliminary data", "result": "CRS and Nausea"}, {"measurement": "tumor cell kill", "setting": "[7]; biopsy taken 2 weeks after administering the anti-CD20 antibody", "result": "up to 40%"}, {"measurement": "T-cell-mediated cytotoxicity in patient biopsies", "setting": "[7]", "result": "induced T-cell-mediated cytotoxicity"}]}]}
